Like-named read-outs stand apart in the source and are kept apart here. One block for each compound: values may come before it.
Legend:
[1] = system: human epidermoid tumors (A431); assay: In vivo inhibition of the growth of human epidermoid tumors (A431) in mice; settings: for inhibition of tumor growth in vivo (in words): summary of Tables 4-7
Description: BALB/c nu/nu female mice (Charles River, Wilmington, Mass.) were used in the in vivo standard pharmacological test procedures. […] When tumors attained a mass of between 100 and 150 mg, the mice were randomized into treatment groups (day zero). Mice were treated IP once a day either on days 1, 5, and 9 or on days 1 through 10 post staging with doses of either 80, 40 or 20 mg/kg/dose of the compound to be evaluated in 0.2% Klucel. Control animals received no drug. Tumor mass was determined every 7 days [(length×width^2)/2] for 28 days post staging. Relative tumor growth (Mean tumor mass on day 7, 14, 21, and 28 divided by the mean tumor mass on day zero) is determined for each treatment group. The % T/C (Tumor/Control) is determined by dividing the relative tumor growth of the treated group by the relative tumor growth of the placebo group and multiplying by 100.

[2] = system: NHEK cells; assay: Inhibition of cell growth, [3H]-thymidine incorporation, NHEK; format: cell-based; settings: Homo sapiens, read-out: IC50, NHEK
Description: (§1) Representative compounds of this invention were evaluated for their ability to inhibit the growth of the cell lines described below in vitro. The inhibition is quantitated by measuring the decrease in the incorporation of radio-labeled thymidine when the cells are grown in the presence of the inhibitor. A431 and SKBR3 cell lines are obtained from American Type Culture Collection, Rockville, Md. […] NHEK cells are obtained from Clonetics (San Diego, Calif.). Cells were routinely grown in a humidified incubator in 5% CO2 in air.
(§2) Cells were seeded at 10,000 cells/well in 96 well plates in complete media and allowed to grow to log phase. […] After overnight incubation in low serum (or EGF lacking) media, the compounds to be evaluated were added and cells remained in the presence of compounds for 48 to 72 hours. Media with test compound was then removed and complete media was added back. The cells were allowed to grow for 18 hours. This is followed by incubation in [^3 H]thymidine (1mCi/ml in serum/EGF media) for 4 hours. Cells were lysed in 0.5M NaOH for at least 30 min at 37° C. and radioactivity analyzed.
(§3) The cell growth inhibition data is provided below in TABLE 3. […] The % inhibition of the compound evaluated was determined for at least three different concentrations and the IC50 value evaluated from the dose response curve.
(§4) CPM(control) is in units of counts per minute and is a number expressing the amount of [^3 H]thymidine incorporated onto the DNA when cells are grown in the absence of test compound as measured by liquid scintillation counting.

[3] = system: Neu-3T3 cells; assay: Inhibition of cell growth, [3H]-thymidine incorporation, Neu-3T3; format: cell-based; settings: Mus musculus, read-out: IC50, NEU-3T3
Description: as §1, §2, §3, §4

[4] = system: SKBR3 cells; assay: Inhibition of cell growth, [3H]-thymidine incorporation, SKBR3; format: cell-based; settings: Homo sapiens
Description: Representative compounds of this invention were evaluated for their ability to inhibit the growth of the cell lines described below in vitro. The inhibition is quantitated by measuring the decrease in the incorporation of radio-labeled thymidine when the cells are grown in the presence of the inhibitor. A431 and SKBR3 cell lines are obtained from American Type Culture Collection, Rockville, Md. […] NHEK cells are obtained from Clonetics (San Diego, Calif.). Cells were routinely grown in a humidified incubator in 5% CO2 in air. […] Cells were seeded at 10,000 cells/well in 96 well plates in complete media and allowed to grow to log phase. […] After overnight incubation in low serum (or EGF lacking) media, the compounds to be evaluated were added and cells remained in the presence of compounds for 48 to 72 hours. Media with test compound was then removed and complete media was added back. The cells were allowed to grow for 18 hours. This is followed by incubation in [^3 H]thymidine (1mCi/ml in serum/EGF media) for 4 hours. Cells were lysed in 0.5M NaOH for at least 30 min at 37° C. and radioactivity analyzed. The cell growth inhibition data is provided below in TABLE 3. […] The % inhibition of the compound evaluated was determined for at least three different concentrations and the IC50 value evaluated from the dose response curve. […] CPM(control) is in units of counts per minute and is a number expressing the amount of [^3 H]thymidine incorporated onto the DNA when cells are grown in the absence of test compound as measured by liquid scintillation counting.

[5] = target: T1, Epidermal Growth Factor Receptor Kinase (EGF-R) (Homo sapiens, UniProt P00533); assay: Inhibition of Epidermal Growth Factor Receptor Kinase (EGF-R), phosphorylation of peptide substrate RR-SRC; format: biochemical; settings: A431 membrane extract; average of number of tests
T1 construct: The enzyme was obtained as a membrane extract of A431 cells; (cells); host or cells: A431 cells (membrane extract)
T1 sequence (P00533 25-1210): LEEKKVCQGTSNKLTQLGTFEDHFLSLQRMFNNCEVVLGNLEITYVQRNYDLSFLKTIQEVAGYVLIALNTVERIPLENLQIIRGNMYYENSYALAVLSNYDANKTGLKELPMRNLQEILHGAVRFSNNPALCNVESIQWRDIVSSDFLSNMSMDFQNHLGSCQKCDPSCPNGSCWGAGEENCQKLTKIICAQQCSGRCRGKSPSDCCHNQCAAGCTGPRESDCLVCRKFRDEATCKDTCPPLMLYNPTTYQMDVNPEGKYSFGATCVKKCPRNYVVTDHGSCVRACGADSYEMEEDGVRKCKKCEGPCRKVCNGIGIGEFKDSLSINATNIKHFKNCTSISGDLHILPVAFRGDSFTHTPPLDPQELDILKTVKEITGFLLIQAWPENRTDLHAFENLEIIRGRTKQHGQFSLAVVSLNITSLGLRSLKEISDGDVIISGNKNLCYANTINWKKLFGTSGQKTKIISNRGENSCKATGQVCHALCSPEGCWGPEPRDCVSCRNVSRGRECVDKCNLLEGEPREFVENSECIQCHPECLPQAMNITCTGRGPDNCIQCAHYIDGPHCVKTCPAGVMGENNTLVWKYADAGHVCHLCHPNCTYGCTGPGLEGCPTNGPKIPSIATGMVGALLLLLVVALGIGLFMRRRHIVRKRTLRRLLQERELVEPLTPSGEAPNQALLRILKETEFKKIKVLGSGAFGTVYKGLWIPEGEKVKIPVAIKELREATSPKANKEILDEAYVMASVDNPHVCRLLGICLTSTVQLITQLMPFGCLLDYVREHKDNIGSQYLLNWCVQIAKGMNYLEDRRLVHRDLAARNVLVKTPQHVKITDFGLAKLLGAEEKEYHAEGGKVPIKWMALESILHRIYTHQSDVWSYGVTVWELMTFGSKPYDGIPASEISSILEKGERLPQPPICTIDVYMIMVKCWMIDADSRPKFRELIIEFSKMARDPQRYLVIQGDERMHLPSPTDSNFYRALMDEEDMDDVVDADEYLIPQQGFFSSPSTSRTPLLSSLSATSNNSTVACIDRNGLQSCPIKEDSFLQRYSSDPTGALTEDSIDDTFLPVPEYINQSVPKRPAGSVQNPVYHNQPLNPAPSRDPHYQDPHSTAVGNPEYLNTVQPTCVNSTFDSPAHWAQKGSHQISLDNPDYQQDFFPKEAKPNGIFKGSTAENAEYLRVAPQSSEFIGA
T1 sequence (P01133 971-1023 partner limits assumed): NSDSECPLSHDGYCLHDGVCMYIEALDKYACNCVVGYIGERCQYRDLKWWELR
Description: The % inhibition of the test compound was determined for at least three different concentrations and the IC50 value was evaluated from the dose response curve.
The CPM values were corrected for the background counts produced by ATP in the absence of the enzymatic reaction.

[6] = system: A431 cells; assay: Inhibition of cell growth, [3H]-thymidine incorporation, A431; format: cell-based; settings: Homo sapiens, A-431, read-out: IC50, A431
Description: as §1
Cells were seeded at 10,000 cells/well in 96 well plates in complete media and allowed to grow to log phase. […] After overnight incubation in low serum (or EGF lacking) media, the compounds to be evaluated were added and cells remained in the presence of compounds for 48 to 72 hours. […] Cells were lysed in 0.5M NaOH for at least 30 min at 37° C. and radioactivity analyzed.
as §3, §4

[7] = Table 6, 20 mg/kg IP, day 1 through 10
[8] = Table 6, 20 mg/kg IP, day 1 through 10, * p < 0.01
[9] = Table 6, 80 mg/kg IP, days 1, 5, and 9
[10] = Table 6, 80 mg/kg IP, days 1, 5, and 9, * p < 0.01
[11] = Table 7, 20 mg/kg IP, days through 10
[12] = Table 7, 80 mg/kg IP, days 1, 5, and 9
[13] = SK-BR-3, 48 to 72 hours with compound, read-out: IC50, SKBR3
[14] = Table 4, 20 mg/kg/dose IP, days 1, 5, 9
[15] = Table 4, 20 mg/kg/dose IP, days 1 through 10
[16] = Table 4, 40 mg/kg/dose IP, days 1, 5, 9
[17] = Table 4, 80 mg/kg/dose IP, days 1, 5, 9
[18] = Table 5, 20 mg/kg/dose IP, days 1 through 15
[19] = Table 7, 80 mg/kg IP, days 1, 5, and 9, * p < 0.01

SMILES: C=CC(=O)Nc1cc2c(Nc3cccc(C)c3)ncnc2cc1F [Comparator A, N-[4-[(3-methylphenyl)amino]-6-quinazolinyl]-7-fluoro-2-propenamide, reference compound]
activity relative to the compound of Example 9 (in words) ([1]; A431 tumors in mice, Tables 6 and 7): substantially less active than the compound of Example 9
inhibition of tumor growth in vivo (in words) ([1]; A431 tumors in mice): failed to significantly reduce tumor growth at both doses tested
RTG Day 7 [1, 7]: 4.82
RTG Day 14 [1, 7]: 7.36
RTG Day 21 [1, 7]: 8.75
S/T (No. Survivors/No. Treated on Day +21) [1, 7]: 9/10
% T/C Day 7 [1, 8]: 87%
% T/C Day 14 [1, 8]: 63%
% T/C Day 21 [1, 8]: 56%
RTG Day 7 [1, 9]: 3.39
RTG Day 14 [1, 9]: 5.60
RTG Day 21 [1, 9]: 7.68
S/T (No. Survivors/No. Treated on Day +21) [1, 9]: 10/10
% T/C Day 7 [1, 10]: 61%
% T/C Day 14 [1, 10]: 48%
% T/C Day 21 [1, 10]: 48%

SMILES: CCCC(=O)Nc1ccc2ncnc(Nc3cccc(Br)c3)c2c1 [Comparator B, N-[4-[(3-bromophenyl)amino]-6-quinazolinyl]-butanamide, reference compound]
inhibition of tumor growth in vivo (in words) ([1]; A431 tumors in mice): failed to significantly reduce tumor growth at both doses tested
RTG Day 7 [1, 11]: 2.90
RTG Day 14 [1, 11]: 4.19
RTG Day 21 [1, 11]: 5.62
RTG Day 28 [1, 11]: 8.04
S/T (No. Survivors/No. Treated on Day +28) [1, 11]: 5/5
RTG Day 7 [1, 12]: 3.37
RTG Day 14 [1, 12]: 5.43
RTG Day 21 [1, 12]: 6.21
RTG Day 28 [1, 12]: 10.26
S/T (No. Survivors/No. Treated on Day +28) [1, 12]: 5/5

SMILES: O=C(O)/C=C\C(=O)Nc1ccc2ncnc(Nc3cccc(Br)c3)c2c1 [Example 4, 4-[[4-[(3-Bromophenyl)amino]-6-quinazolinyl]amino]-4-oxo-(Z)-2-butenoic acid]
IC50 [2]: 170 nM

IC50 [4, 13]: > 50000 nM
SMILES: CC(C)=CC(=O)Nc1ccc2ncnc(Nc3cccc(Br)c3)c2c1 [Example 6, N-[4-[(3-Bromophenyl)amino]-6-quinazolinyl]-3-methyl-2-butenamide]
IC50 ([3]; 48 to 72 hours with compound): > 50000 nM

SMILES: CC#CC(=O)Nc1ccc2ncnc(Nc3cccc(Br)c3)c2c1 [Example 9, N-[4-[(3-Bromophenyl)amino]-6-quinazolinyl]-2-butynamide]
inhibition of tumor growth in vivo (in words) ([1]; A431 tumors in mice): significantly (p<0.01) inhibited human epidermoid tumor growth in vivo
% T/C Day 7 [1, 14]: 47%
% T/C Day 16 [1, 14]: 34%
% T/C Day 21 [1, 14]: 38%
% T/C Day 28 [1, 14]: 41%
RTG Day 7 [1, 14]: 1.72
RTG Day 16 [1, 14]: 2.69
RTG Day 21 [1, 14]: 4.33
RTG Day 28 [1, 14]: 6.18
S/T (No. Survivors/No. Treated on Day +28) [1, 14]: 5/5
% T/C Day 7 [1, 15]: 20%
% T/C Day 16 [1, 15]: 13%
% T/C Day 21 [1, 15]: 11%
% T/C Day 28 [1, 15]: 17%
RTG Day 7 [1, 15]: 0.75
RTG Day 16 [1, 15]: 1.01
RTG Day 21 [1, 15]: 1.25
RTG Day 28 [1, 15]: 2.53
S/T (No. Survivors/No. Treated on Day +28) [1, 15]: 5/5
% T/C Day 7 [1, 16]: 40%
% T/C Day 16 [1, 16]: 28%
% T/C Day 21 [1, 16]: 27%
% T/C Day 28 [1, 16]: 27%
RTG Day 7 [1, 16]: 1.48
RTG Day 16 [1, 16]: 2.23
RTG Day 21 [1, 16]: 3.05
RTG Day 28 [1, 16]: 4.04
S/T (No. Survivors/No. Treated on Day +28) [1, 16]: 5/5
% T/C Day 7 [1, 17]: 18%
% T/C Day 16 [1, 17]: 11%
% T/C Day 21 [1, 17]: 9%
% T/C Day 28 [1, 17]: 9%
RTG Day 7 [1, 17]: 0.71
RTG Day 16 [1, 17]: 0.91
RTG Day 21 [1, 17]: 1.07
RTG Day 28 [1, 17]: 1.36
S/T (No. Survivors/No. Treated on Day +28) [1, 17]: 5/5
% T/C Day 7 [1, 18]: 35%
% T/C Day 14 [1, 18]: 22%
% T/C Day 21 [1, 18]: 19%
% T/C Day 28 [1, 18]: 22%
RTG Day 7 [1, 18]: 1.11
RTG Day 14 [1, 18]: 1.26
RTG Day 21 [1, 18]: 1.51
RTG Day 28 [1, 18]: 2.55
S/T (No. Survivors/No. Treated on Day +28) [1, 18]: 14/15
RTG Day 7 [1, 7]: 0.79
RTG Day 14 [1, 7]: 1.39
RTG Day 21 [1, 7]: 2.55
S/T (No. Survivors/No. Treated on Day +21) [1, 7]: 10/10
% T/C Day 7 [1, 8]: 14%
% T/C Day 14 [1, 8]: 12%
% T/C Day 21 [1, 8]: 16%
RTG Day 7 [1, 9]: 1.25
RTG Day 14 [1, 9]: 2.50
RTG Day 21 [1, 9]: 3.77
S/T (No. Survivors/No. Treated on Day +21) [1, 9]: 10/10
% T/C Day 7 [1, 10]: 18%
% T/C Day 14 [1, 10]: 21%
% T/C Day 21 [1, 10]: 24%
RTG Day 7 [1, 12]: 0.89
RTG Day 14 [1, 12]: 1.50
RTG Day 21 [1, 12]: 2.44
RTG Day 28 [1, 12]: 3.45
S/T (No. Survivors/No. Treated on Day +28) [1, 12]: 5/5
% T/C Day 7 [1, 19]: 25%
% T/C Day 14 [1, 19]: 27%
% T/C Day 21 [1, 19]: 42%
% T/C Day 28 [1, 19]: 45%
IC50 [2]: 2 nM
IC50 ([4]; SK-BR-3, read-out: IC50, SKBR3): 1060 nM

SMILES: O=C(O)/C=C/C(=O)Nc1ccc2ncnc(Nc3cccc(Br)c3)c2c1 [Example 10, 4-[[4-[(3-Bromophenyl)amino]-6-quinazolinyl]amino]-4-oxo-(E)-2-butenoic acid]
IC50 [3]: 15000 nM

SMILES: CC=CC=CC(=O)Nc1ccc2ncnc(Nc3cccc(Br)c3)c2c1 [Example 11, N-[4-[(3-Bromophenyl)amino]-6-quinazolinyl]-2,4-hexadienamide]
IC50 ([3]; 48 to 72 hours with compound): 400 nM
IC50 [2]: 850 nM
IC50 [5]: 56 nM
IC50 [6]: 800 nM
IC50 [4, 13]: 4000 nM

IC50 [5]: 1000 nM
SMILES: O=C(C#Cc1ccccc1)Nc1ccc2ncnc(Nc3cccc(Br)c3)c2c1 [Example 14, N-[4-[(3-bromophenyl)amino]-6-quinazolinyl]-(3-phenyl-2-propynamide)]

SMILES: COc1cc2ncnc(Nc3cccc(Br)c3)c2cc1OC [N-(3-bromophenyl)-6,7-dimethoxy-4-quinazolinamine, reference compound]
inhibition of tumor growth in vivo (in words) ([1]; A431 tumors in mice): devoid of antineoplastic activity
% T/C Day 7 [1, 18]: 95%
% T/C Day 14 [1, 18]: 116%
% T/C Day 21 [1, 18]: 128%
% T/C Day 28 [1, 18]: 140%
RTG Day 7 [1, 18]: 3.03
RTG Day 14 [1, 18]: 6.58
RTG Day 21 [1, 18]: 10.5
RTG Day 28 [1, 18]: 14.47
S/T (No. Survivors/No. Treated on Day +28) [1, 18]: 15/15
